Data from patent US6686393B1, “Pharmaceutical compositions having antiviral activity against human cytomegalovirus” (Murdock International Corporation, priority 1990, dated 2004).
Several values for one entry are separate records, joined by “and”; a condition that tells them apart may be missing. Identical values can stand only once. Entries after “also recorded” stand apart in the source; their conditions may differ. Like-named read-outs stand apart in the source and are kept apart here.

Experiments:
[1] = tested on: human cytomegalovirus (HCMV), strain AD-169; experiment: Antiviral test (plaque reduction) versus HCMV, strain AD-169, in MRC-5 cells; format: cell-based; conditions: for Activity against HCMV: statement in words on the plaque reduction results
[2] = tested on: MRC-5 cells
[3] = Human betaherpesvirus 5, AD169, MRC5, read-out: % Reduction
[4] = Human betaherpesvirus 5, AD169, MRC5, read-out: Percent Inhibition of Plaque Numbers (Compared to Virus Controls)

O=C1c2cccc(O)c2C(=O)c2c(O)cccc21 [1,8-Dihydroxyanthraquinone, 1,8-dihydroxyanthraquinone]
Number of Plaques ([1]; 0.01 μg/ml, Example 6): 10
Number of Plaques ([1]; 0.01 μg/ml, Example 7): 26
Number of Plaques ([1]; 0.032 μg/ml, Example 6): 9
Number of Plaques ([1]; 0.032 μg/ml, Example 7): 20
Number of Plaques ([1]; 0.1 μg/ml, Example 6): 10
Number of Plaques ([1]; 0.1 μg/ml, Example 7): 22
Number of Plaques ([1]; 0.32 μg/ml, Example 6): 12
Number of Plaques ([1]; 0.32 μg/ml, Example 7): 44
Number of Plaques ([1]; 1.0 μg/ml, Example 6): 10
Number of Plaques ([1]; 1.0 μg/ml, Example 7): 35
Number of Plaques ([1]; 3.2 μg/ml, Example 6): 8
Number of Plaques ([1]; 3.2 μg/ml, Example 7): 42
Number of Plaques ([1]; 10.0 μg/ml, Example 6): 12
Number of Plaques ([1]; 10.0 μg/ml, Example 7): 30
inhibition at 0.01 µg/mL ([1]; Human betaherpesvirus 5, AD169, MRC5, 0.01 μg/ml, Example 6, read-out: % Reduction): 0%
inhibition at 0.01 µg/mL ([1]; Human betaherpesvirus 5, AD169, MRC5, 0.01 μg/ml, Example 7, read-out: % Reduction): 0%
inhibition at 0.032 µg/mL ([1]; Human betaherpesvirus 5, AD169, MRC5, 0.032 μg/ml, Example 6, read-out: % Reduction): 0%
inhibition at 0.032 µg/mL ([1]; Human betaherpesvirus 5, AD169, MRC5, 0.032 μg/ml, Example 7, read-out: % Reduction): 37%
inhibition at 0.1 µg/mL ([1]; Human betaherpesvirus 5, AD169, MRC5, 0.1 μg/ml, Example 6, read-out: % Reduction): 0%
inhibition at 0.1 µg/mL ([1]; Human betaherpesvirus 5, AD169, MRC5, 0.1 μg/ml, Example 7, read-out: % Reduction): 31%
inhibition at 0.32 µg/mL ([1]; Human betaherpesvirus 5, AD169, MRC5, 0.32 μg/ml, Example 6, read-out: % Reduction): 0%
inhibition at 0.32 µg/mL ([1]; Human betaherpesvirus 5, AD169, MRC5, 0.32 μg/ml, Example 7, read-out: % Reduction): 0%
inhibition at 1 µg/mL ([1]; Human betaherpesvirus 5, AD169, MRC5, 1.0 μg/ml, Example 6, read-out: % Reduction): 0%
inhibition at 1 µg/mL ([1]; Human betaherpesvirus 5, AD169, MRC5, 1.0 μg/ml, Example 7, read-out: % Reduction): 0%
inhibition at 3.2 µg/mL ([1]; Human betaherpesvirus 5, AD169, MRC5, 3.2 μg/ml, Example 6, read-out: % Reduction): 0%
inhibition at 3.2 µg/mL ([1]; Human betaherpesvirus 5, AD169, MRC5, 3.2 μg/ml, Example 7, read-out: % Reduction): 0%
inhibition at 10 µg/mL ([1]; Human betaherpesvirus 5, AD169, MRC5, 10.0 μg/ml, Example 6, read-out: % Reduction): 0%
inhibition at 10 µg/mL ([1]; Human betaherpesvirus 5, AD169, MRC5, 10.0 μg/ml, Example 7, read-out: % Reduction): 0%
Activity against HCMV ([1]; listed as 1,8-dihydroxy anthraquinone): Slight activity
Activity against HCMV ([1]; listed as 1,8-dihydroxyanthraquinone): show activity; also recorded: activity but at lower levels
CD50 ([2]; human): >10 µg/mL

O=C(O)c1cc(O)c2c(c1)[C@H]([C@H]1c3cc(C(=O)O)cc(O)c3C(=O)c3c(O[C@@H]4O[C@H](CO)[C@@H](O)[C@H](O)[C@H]4O)cccc31)c1cccc(O[C@@H]3O[C@H](CO)[C@@H](O)[C@H](O)[C@H]3O)c1C2=O [(+)Sennoside A, sennoside A]
Percent Inhibition of Plaque Numbers (Compared to Virus Controls) ([1]; 0.01 μg/ml, Example 2): 0%
Percent Inhibition of Plaque Numbers (Compared to Virus Controls) ([1]; 0.032 μg/ml, Example 2): 0%
Percent Inhibition of Plaque Numbers (Compared to Virus Controls) ([1]; 0.1 μg/ml, Example 2): 0%
Percent Inhibition of Plaque Numbers (Compared to Virus Controls) ([1]; 0.32 μg/ml, Example 2): 0%
Percent Inhibition of Plaque Numbers (Compared to Virus Controls) ([1]; 1.0 μg/ml, Example 2): 0%
Percent Inhibition of Plaque Numbers (Compared to Virus Controls) ([1]; 3.2 μg/ml, Example 2): 0%
Percent Inhibition of Plaque Numbers (Compared to Virus Controls) ([1]; 10 μg/ml, Example 2, ethanol stock (protohypericin in DMSO), cells exposed 6 or more days): 0%
CD50 ([2]; Example 2, cells exposed 6 or more days): >10 µg/mL
CD50 ([2]; Table 9 summary, two values = two experiments): >10 µg/mL

O=C1c2cccc(O)c2C(=O)c2c(O)cc(CO)cc21 [Aloe-Emodin, aloe-emodin]
inhibition at 0.01 µg/mL ([1]; Human betaherpesvirus 5, AD169, MRC5, 0.01 μg/ml, Example 2, read-out: Percent Inhibition of Plaque Numbers (Compared to Virus Controls)): 0%
inhibition at 0.032 µg/mL ([1]; Human betaherpesvirus 5, AD169, MRC5, 0.032 μg/ml, Example 2, read-out: Percent Inhibition of Plaque Numbers (Compared to Virus Controls)): 0%
inhibition at 0.1 µg/mL ([1]; Human betaherpesvirus 5, AD169, MRC5, 0.1 μg/ml, Example 2, read-out: Percent Inhibition of Plaque Numbers (Compared to Virus Controls)): 0%
inhibition at 0.32 µg/mL ([1]; Human betaherpesvirus 5, AD169, MRC5, 0.32 μg/ml, Example 2, read-out: Percent Inhibition of Plaque Numbers (Compared to Virus Controls)): 0%
inhibition at 1 µg/mL ([1]; Human betaherpesvirus 5, AD169, MRC5, 1.0 μg/ml, Example 2, read-out: Percent Inhibition of Plaque Numbers (Compared to Virus Controls)): 0%
inhibition at 3.2 µg/mL ([1]; Human betaherpesvirus 5, AD169, MRC5, 3.2 μg/ml, Example 2, read-out: Percent Inhibition of Plaque Numbers (Compared to Virus Controls)): 0%
inhibition at 10 µg/mL ([1]; Human betaherpesvirus 5, AD169, MRC5, 10 μg/ml, Example 2, ethanol stock (protohypericin in DMSO), cells exposed 6 or more days, read-out: Percent Inhibition of Plaque Numbers (Compared to Virus Controls)): 0%
CD50 ([2]; human): >10 µg/mL

O=C1c2c(O)cccc2C([C@@H]2O[C@H](CO)[C@@H](O)[C@H](O)[C@H]2O)c2cc(CO)cc(O)c21 (stereo partly shown) [Aloin, aloin]
Number of Plaques [1]: 24 and 26 and 20 and 16
inhibition at 0.01 µg/mL [1, 3]: 0%
inhibition at 0.032 µg/mL [1, 3]: 0%
inhibition at 0.1 µg/mL [1, 3]: 0%
inhibition at 0.32 µg/mL [1, 3]: 0%
inhibition at 1 µg/mL [1, 3]: 0%
inhibition at 3.2 µg/mL [1, 3]: 0%
inhibition at 10 µg/mL [1, 3]: 0%
CD50 ([2]; human): >10 µg/mL

O=C1c2ccc(O)cc2C(=O)c2ccc(O)cc21 [Anthraflavic Acid, anthraflavic acid]
inhibition at 0.01 µg/mL [1, 4]: 0%
inhibition at 0.032 µg/mL [1, 4]: 0%
inhibition at 0.1 µg/mL [1, 4]: 0%
inhibition at 0.32 µg/mL [1, 4]: 0%
inhibition at 1 µg/mL [1, 4]: 11%
inhibition at 3.2 µg/mL [1, 4]: 15%
CD50 ([2]; human): 3.4 µg/mL
